Earlier results in patent US11129837B2, “Salicylate compound composition” (Innovate Pharmaceuticals Limited, priority 2014, dated 2021).

How the values were obtained:
glioma stem cells = details: versus normal glial cells or neural stem cells
rat stomachs = details: for effect on PGE2: given either orally or subcutaneously
[1] = system: PGE2 synthesis in C6 cells; details: high and low dose
colorectal cancer = details: daily ingestion over an 8-10 year period, at any dose
[2] = system: malignant glioblastoma RG2 cells; details: administered the day before tumour cell inoculation and in established tumours
[3] = human patients
cancer = details: daily aspirin

| SMILES | growth of glioma stem cells in culture (glioma stem cells) | effect on PGE2 (rat stomachs) | PGE2 synthesis [1] | reduction of CRC-associated mortality (colorectal cancer) [%] | reduction of the risk of colorectal cancer (colorectal cancer) [%] | apoptosis (A172 glioblastoma cells) | growth of RG2 glioblastoma cells in rat [2] | gastric damage (rat stomachs; given orally or subcutaneously) | maximum tolerated dose [3] | reduction of cancer mortality (cancer) |
| --- | --- | --- | --- | --- | --- | --- | --- | --- | --- | --- |
| CC(=O)OCC(COC(C)=O)OC(C)=O [Glycerin triacetate, 1,3-Diacetyloxypropan-2-yl acetate] | slowing the growth | – | – | – | – | – | – | – | – | – |
| COc1ccc2c(c1)c(CC(=O)O)c(C)n2C(=O)c1ccc(Cl)cc1 [Indomethacin] | – | decrease PGE2 | – | – | – | – | – | – | – | – |
| CC(=O)Oc1ccccc1C(=O)O [aspirin, 2-(acetoxy)benzoic acid] | – | decrease PGE2 | directly inhibited PGE2 synthesis | 35 | 24 | induced significant apoptosis | significantly inhibited the growth | only caused damage when given orally | about 4 g | around 20% |
